For this assay, the system named is P388 lymphocytic leukemia. As to the kind of experiment: Activity against the P388 lymphocytic leukemia. Format: cell-based. Conditions: same level as routinely obtained with the natural product.

Turning to dolastatin 10 [Synthetic dolastatin 10], the “ED50, activity against the P388 lymphocytic leukemia” value is given as 10^-4 μg/mL.
